Measured values taken from patent US7348400B2 (priority 2001, dated 2008).

Tests used:
nAChR = format: binding, bovine
[1] = tested on: unmyelinated primary afferent sensory nerves; conditions: rat, in vivo

| Molecule | displacement of 3H-epibatidine binding (nAChR) | also measured |
| --- | --- | --- |
| C[N+]1(C)CCN(c2ccccc2)CC1.[I-] [DMPP, 1,1-dimethyl-4-phenylpiperazinium iodide] | displaced | – |
| CN1CCCC1c1cccnc1 (stereo not drawn) [nicotine] | displaced | – |
| C[N+](C)(C)CCOC(N)=O [carbachol] | displaced | – |
| Clc1ccc(C2CC3CCC2N3)cn1 (stereo not drawn) [^3H-epibatidine, epibatidine] | – | Hill coefficient of 3H-epibatidine binding (nAChR): 1.08 |
| Nc1cc[nH]c(=O)n1 [cytosine] | displaced | – |
| ω-conotoxin GVIA | – | inhibition of the vascular response to LFES of sensory nerves [1]: significant inhibition |
